{
  "source": "ChEMBL document CHEMBL3822377",
  "about": "“Locking PDK1 in DFG-out conformation through 2-oxo-indole containing molecules: Another tools to fight glioblastoma” (Eur J Med Chem, 2016)",
  "key": {"[1]": {"target": "Serine/threonine-protein kinase MRCK alpha (Homo sapiens) (UniProt Q5VT25)", "sequence (Q5VT25 whole entry)": "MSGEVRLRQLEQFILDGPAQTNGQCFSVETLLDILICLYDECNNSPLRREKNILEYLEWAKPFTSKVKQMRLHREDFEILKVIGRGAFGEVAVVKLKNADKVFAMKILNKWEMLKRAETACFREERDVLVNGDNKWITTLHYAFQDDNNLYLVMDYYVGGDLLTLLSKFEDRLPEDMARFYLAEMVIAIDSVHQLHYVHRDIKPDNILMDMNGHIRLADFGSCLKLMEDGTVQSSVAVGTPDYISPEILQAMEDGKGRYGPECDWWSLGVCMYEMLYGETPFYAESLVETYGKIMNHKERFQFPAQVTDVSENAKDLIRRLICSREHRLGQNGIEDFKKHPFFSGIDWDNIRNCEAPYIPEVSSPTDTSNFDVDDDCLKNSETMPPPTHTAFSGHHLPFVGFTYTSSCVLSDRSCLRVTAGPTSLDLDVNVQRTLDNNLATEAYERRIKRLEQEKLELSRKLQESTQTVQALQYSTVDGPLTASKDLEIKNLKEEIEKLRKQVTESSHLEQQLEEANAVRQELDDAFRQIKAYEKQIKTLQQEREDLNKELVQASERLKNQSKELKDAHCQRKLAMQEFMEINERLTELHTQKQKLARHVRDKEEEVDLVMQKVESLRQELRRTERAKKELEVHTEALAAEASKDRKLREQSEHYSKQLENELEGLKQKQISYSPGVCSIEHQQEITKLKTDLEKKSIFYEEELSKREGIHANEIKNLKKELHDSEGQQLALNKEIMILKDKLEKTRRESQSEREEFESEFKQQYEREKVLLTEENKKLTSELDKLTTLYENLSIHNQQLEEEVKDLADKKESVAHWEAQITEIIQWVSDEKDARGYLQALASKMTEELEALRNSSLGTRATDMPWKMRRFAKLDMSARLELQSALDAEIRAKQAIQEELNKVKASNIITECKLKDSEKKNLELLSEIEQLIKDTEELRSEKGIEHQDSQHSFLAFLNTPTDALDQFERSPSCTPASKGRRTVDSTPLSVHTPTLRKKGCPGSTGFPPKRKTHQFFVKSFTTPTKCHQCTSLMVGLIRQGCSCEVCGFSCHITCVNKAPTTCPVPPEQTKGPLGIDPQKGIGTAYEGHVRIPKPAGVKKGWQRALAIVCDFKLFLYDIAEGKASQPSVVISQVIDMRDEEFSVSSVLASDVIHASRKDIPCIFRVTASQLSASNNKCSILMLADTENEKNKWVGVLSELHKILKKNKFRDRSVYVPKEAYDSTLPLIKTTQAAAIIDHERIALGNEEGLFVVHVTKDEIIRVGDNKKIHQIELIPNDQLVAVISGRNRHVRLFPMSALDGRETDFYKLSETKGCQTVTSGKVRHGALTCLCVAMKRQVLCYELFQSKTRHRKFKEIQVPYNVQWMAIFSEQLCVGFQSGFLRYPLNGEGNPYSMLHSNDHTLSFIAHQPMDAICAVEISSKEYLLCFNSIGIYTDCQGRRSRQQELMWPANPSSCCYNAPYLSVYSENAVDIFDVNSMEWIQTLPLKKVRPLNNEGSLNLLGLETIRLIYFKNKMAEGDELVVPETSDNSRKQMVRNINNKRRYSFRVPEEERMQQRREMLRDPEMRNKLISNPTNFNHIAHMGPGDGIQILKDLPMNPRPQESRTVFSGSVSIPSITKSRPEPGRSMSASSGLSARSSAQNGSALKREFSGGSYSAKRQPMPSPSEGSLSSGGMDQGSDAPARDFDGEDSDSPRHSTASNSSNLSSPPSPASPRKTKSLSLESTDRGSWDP", "experiment": "Inhibition of His-tagged human CDC42 BPA expressed in baculovirus system at 100 nM by Z-lyte assay"}, "[2]": {"target": "PI3-kinase p110-alpha/p85-alpha (Homo sapiens) (UniProt P27986+P42336)", "experiment": "Inhibition of His-tagged full-length human recombinant PIK3CA/PIK3R1 expressed in baculovirus system at 100 nM by adapta assay"}, "[3]": {"target": "Mitogen-activated protein kinase 9 (Homo sapiens) (UniProt P45984)", "experiment": "Inhibition of His-tagged full-length recombinant human MAPK9 expressed in baculovirus system at 100 nM by Z-lyte assay"}, "[4]": {"test_system": "U-87 MG", "experiment": "Induction of apoptosis in human U87MG cells assessed as live cells by measuring phosphatidylserine externalisation at 10 uM after 72 hrs by AnnexinV/FITC staining-based flow cytometry (reference value: 87.05%)", "format": "functional, U-87MG ATCC"}, "[5]": {"target": "Serine/threonine-protein kinase B-raf (Homo sapiens) (UniProt P15056)", "experiment": "Inhibition of GST-tagged full-length human BRAF expressed in baculovirus system at 100 nM by Z-lyte assay"}, "[6]": {"target": "Tyrosine-protein kinase Lck (Homo sapiens) (UniProt P06239)", "sequence (P06239 2-509 limits assumed)": "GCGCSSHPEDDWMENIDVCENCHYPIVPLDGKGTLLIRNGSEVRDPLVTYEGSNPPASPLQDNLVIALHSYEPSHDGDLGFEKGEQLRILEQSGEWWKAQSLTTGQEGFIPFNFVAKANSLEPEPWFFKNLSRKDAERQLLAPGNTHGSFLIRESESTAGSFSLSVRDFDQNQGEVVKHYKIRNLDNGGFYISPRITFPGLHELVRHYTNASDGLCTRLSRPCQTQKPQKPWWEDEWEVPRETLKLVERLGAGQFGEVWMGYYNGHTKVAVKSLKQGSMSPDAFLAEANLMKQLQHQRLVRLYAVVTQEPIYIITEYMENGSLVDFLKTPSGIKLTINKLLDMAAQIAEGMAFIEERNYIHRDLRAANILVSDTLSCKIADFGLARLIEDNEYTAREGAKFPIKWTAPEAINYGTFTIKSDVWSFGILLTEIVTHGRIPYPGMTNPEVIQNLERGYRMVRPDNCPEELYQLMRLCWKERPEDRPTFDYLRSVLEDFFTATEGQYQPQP", "experiment": "Inhibition of His-tagged full-length human LCK expressed in baculovirus system at 100 nM by Z-lyte assay"}, "[7]": {"test_system": "U-87 MG", "experiment": "Induction of apoptosis in human U87MG cells assessed as dead cells by measuring phosphatidylserine externalisation at 10 uM after 72 hrs in presence of 7-amino-actinomysin by AnnexinV/FITC staining-based flow cytometry (reference value: 2.1%)", "format": "functional, U-87MG ATCC"}, "[8]": {"target": "Cyclin-dependent kinase 1/cyclin B1 (Homo sapiens) (UniProt P06493+P14635)", "sequence (P06493 whole entry, looked up)": "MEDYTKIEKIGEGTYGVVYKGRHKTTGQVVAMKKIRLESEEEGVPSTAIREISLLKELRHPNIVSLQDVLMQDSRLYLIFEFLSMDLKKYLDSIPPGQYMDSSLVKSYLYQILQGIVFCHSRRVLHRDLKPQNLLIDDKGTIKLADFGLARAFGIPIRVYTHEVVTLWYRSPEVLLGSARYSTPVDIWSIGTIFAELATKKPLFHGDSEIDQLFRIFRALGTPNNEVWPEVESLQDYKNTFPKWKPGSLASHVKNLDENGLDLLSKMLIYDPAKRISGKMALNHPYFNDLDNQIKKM", "sequence (P14635 whole entry, looked up)": "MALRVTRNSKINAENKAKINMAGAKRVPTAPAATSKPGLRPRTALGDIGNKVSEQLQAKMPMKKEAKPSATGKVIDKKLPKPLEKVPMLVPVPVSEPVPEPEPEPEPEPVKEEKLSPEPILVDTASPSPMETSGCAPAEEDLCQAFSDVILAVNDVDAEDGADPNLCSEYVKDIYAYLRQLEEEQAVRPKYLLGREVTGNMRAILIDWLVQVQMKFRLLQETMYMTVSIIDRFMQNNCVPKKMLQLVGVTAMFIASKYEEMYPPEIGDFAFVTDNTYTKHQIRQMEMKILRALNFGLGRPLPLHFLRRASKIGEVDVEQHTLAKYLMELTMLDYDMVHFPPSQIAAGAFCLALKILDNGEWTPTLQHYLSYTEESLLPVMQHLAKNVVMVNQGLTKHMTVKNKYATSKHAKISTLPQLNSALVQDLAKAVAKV", "experiment": "Inhibition of His-tagged full-length human CDK1/Cyclin B expressed in baculovirus system at 100 nM by Z-lyte assay"}, "[9]": {"target": "Cyclin-dependent kinase 5/CDK5 activator 1 (Homo sapiens) (UniProt Q00535+Q15078)", "experiment": "Inhibition of GST/His-tagged full-length human CDK5/p25 expressed in baculovirus system at 100 nM by Z-lyte assay"}, "[10]": {"experiment": "Induction of apoptosis in human GSC cells assessed as live cells by measuring phosphatidylserine externalisation at 10 uM after 7 days by AnnexinV/FITC staining-based flow cytometry (reference value: 87.49%)", "format": "functional"}, "[11]": {"target": "CDK9/cyclin T1 (Homo sapiens) (UniProt O60563+P50750)", "experiment": "Inhibition of His-tagged full-length human recombinant CDK9/Cyclin T1 expressed in baculovirus system at 100 nM by adapta assay"}, "[12]": {"target": "Mitogen-activated protein kinase 8 (Homo sapiens) (UniProt P45983)", "sequence (P45983 whole entry)": "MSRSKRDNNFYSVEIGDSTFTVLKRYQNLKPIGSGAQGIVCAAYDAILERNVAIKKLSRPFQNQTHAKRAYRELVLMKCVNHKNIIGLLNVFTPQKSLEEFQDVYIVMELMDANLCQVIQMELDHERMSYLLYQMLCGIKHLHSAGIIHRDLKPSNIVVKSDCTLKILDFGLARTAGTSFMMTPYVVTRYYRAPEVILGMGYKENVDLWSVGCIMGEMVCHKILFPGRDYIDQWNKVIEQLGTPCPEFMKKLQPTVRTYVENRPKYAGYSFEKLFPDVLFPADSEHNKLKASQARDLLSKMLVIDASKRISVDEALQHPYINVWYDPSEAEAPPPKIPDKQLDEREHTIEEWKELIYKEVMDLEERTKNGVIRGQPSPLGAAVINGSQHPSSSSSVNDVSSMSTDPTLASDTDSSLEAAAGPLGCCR", "experiment": "Inhibition of His-tagged full-length human MAPK8 expressed in baculovirus system at 100 nM by Z-lyte assay"}, "[13]": {"target": "Protein kinase C beta type (Homo sapiens) (UniProt P05771)", "sequence (P05771 2-671 limits assumed)": "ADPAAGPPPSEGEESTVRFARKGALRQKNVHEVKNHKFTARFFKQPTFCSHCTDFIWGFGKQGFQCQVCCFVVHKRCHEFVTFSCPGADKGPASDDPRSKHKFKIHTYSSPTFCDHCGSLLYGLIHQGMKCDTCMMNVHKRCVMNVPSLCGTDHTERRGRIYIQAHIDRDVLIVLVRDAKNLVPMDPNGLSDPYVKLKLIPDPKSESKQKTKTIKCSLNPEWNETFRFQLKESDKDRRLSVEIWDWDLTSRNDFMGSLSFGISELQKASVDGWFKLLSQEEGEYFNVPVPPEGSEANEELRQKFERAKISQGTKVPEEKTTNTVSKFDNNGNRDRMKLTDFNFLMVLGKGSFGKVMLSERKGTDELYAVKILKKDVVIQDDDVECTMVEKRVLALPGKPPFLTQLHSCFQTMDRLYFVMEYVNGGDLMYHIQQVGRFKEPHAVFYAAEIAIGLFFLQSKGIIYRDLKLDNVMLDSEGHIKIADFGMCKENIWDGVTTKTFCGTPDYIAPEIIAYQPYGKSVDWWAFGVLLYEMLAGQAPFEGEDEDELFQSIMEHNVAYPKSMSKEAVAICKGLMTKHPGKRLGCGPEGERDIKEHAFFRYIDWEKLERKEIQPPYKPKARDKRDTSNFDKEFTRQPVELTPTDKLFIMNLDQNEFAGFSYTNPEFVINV", "experiment": "Inhibition of full-length human PRKCB1 expressed in baculovirus system at 100 nM by Z-lyte assay"}, "[14]": {"target": "T1, 3-phosphoinositide-dependent protein kinase 1 (Homo sapiens) (UniProt O15530)", "T1 sequence (whole entry)": "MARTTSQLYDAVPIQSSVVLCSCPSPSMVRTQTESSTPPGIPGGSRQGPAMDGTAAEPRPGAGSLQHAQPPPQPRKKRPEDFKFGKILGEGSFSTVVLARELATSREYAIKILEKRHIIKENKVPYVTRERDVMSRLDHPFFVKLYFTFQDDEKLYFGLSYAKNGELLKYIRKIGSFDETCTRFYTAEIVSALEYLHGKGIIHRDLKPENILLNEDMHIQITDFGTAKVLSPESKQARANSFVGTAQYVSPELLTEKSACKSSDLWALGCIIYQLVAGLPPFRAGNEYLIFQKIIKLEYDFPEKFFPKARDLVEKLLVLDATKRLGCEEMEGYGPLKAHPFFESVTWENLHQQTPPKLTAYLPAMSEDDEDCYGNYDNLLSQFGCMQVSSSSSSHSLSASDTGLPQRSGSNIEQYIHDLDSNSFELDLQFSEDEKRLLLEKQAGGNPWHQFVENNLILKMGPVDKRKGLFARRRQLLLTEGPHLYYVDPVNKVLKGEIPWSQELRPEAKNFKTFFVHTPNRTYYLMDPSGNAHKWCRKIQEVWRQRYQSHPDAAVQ", "experiment": "Inhibition of PDK1 in human GSC cells assessed as reduction in AKT phosphorylation at Thr308 residue at 10 uM measured at 120 mins by ELISA relative to control", "format": "cell-based"}, "[15]": {"target": "Serine/threonine-protein kinase PAK 6 (Homo sapiens) (UniProt Q9NQU5)", "experiment": "Inhibition of His-tagged full-length recombinant human PAK6 expressed in baculovirus system at 100 nM by Z-lyte assay"}, "[16]": {"target": "Dual specificity protein kinase CLK1 (Homo sapiens) (UniProt P49759)", "sequence (P49759 whole entry, looked up)": "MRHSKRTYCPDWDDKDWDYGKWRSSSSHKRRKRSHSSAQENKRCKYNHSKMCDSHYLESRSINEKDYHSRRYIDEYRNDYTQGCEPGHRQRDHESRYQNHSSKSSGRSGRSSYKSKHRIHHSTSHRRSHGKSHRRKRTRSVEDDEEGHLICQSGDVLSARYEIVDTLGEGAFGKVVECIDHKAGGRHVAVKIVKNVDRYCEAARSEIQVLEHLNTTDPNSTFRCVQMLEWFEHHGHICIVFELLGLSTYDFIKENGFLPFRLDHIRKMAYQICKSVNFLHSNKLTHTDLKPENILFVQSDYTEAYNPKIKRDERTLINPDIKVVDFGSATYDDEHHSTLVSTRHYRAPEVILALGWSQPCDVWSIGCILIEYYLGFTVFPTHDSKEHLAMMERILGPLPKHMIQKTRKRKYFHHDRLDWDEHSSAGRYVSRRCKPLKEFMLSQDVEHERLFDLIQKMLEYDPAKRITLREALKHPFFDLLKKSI", "experiment": "Inhibition of GST-tagged human CLK1 expressed in Escherichia coli at 100 nM by Z-lyte assay"}, "[17]": {"target": "Casein kinase II subunit alpha' (Homo sapiens) (UniProt P19784)", "sequence (P19784 whole entry, looked up)": "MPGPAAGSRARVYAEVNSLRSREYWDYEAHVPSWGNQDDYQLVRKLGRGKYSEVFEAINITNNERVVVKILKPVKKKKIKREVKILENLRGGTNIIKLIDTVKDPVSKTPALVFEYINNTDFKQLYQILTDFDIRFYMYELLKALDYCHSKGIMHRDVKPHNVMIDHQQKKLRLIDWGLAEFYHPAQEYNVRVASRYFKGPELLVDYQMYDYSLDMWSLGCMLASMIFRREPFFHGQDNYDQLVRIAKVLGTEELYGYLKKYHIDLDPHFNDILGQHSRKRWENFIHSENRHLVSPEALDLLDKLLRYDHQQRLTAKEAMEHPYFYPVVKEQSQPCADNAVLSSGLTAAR", "experiment": "Inhibition of GST-tagged full-length human recombinant CSNK2A2 expressed in baculovirus system at 100 nM by Z-lyte assay"}, "[18]": {"target": "CDK2/Cyclin A2 (Homo sapiens) (UniProt P24941+P20248)", "experiment": "Inhibition of GST-tagged human CDK2/Cyclin A expressed in baculovirus system at 100 nM by Z-lyte assay"}, "[19]": {"target": "Glycogen synthase kinase-3 alpha (Homo sapiens) (UniProt P49840)", "experiment": "Inhibition of GSK3 alpha (unknown origin) at 100 nM by Z-lyte assay"}, "[20]": {"target": "AMP-activated protein kinase, AMPK (Homo sapiens) (UniProt P54646+O43741+P54619+Q9UGJ0+Q9Y478+Q13131+Q9UGI9)", "experiment": "Inhibition of GST/His-tagged full-length human recombinant AMPK A2/B1/G1 expressed in baculovirus system at 100 nM by Z-lyte assay"}},
  "data": [
    {"smiles": "O=C(CNC(=O)c1cccn(Cc2ccc(F)c(F)c2)c1=O)Nc1ccc2c(c1)/C(=C/c1cnc[nH]1)C(=O)N2", "values": [
      {"measurement": "inhibition", "setting": "[1]", "result": -3, "unit": "%"},
      {"measurement": "inhibition", "setting": "[2]", "result": 20, "unit": "%"},
      {"measurement": "inhibition", "setting": "[3]", "result": -1, "unit": "%"},
      {"measurement": "Activity", "setting": "[4]", "result": 76.41, "unit": "%"},
      {"measurement": "inhibition", "setting": "[5]", "result": 17, "unit": "%"},
      {"measurement": "inhibition", "setting": "[6]", "result": 9, "unit": "%"},
      {"measurement": "Activity", "setting": "[7]", "result": 0.64, "unit": "%"},
      {"measurement": "inhibition", "setting": "[8]", "result": 6, "unit": "%"},
      {"measurement": "inhibition", "setting": "[9]", "result": -8, "unit": "%"},
      {"measurement": "Activity", "setting": "[10]", "result": 58.6, "unit": "%"},
      {"measurement": "inhibition", "setting": "[11]", "result": 6, "unit": "%"},
      {"measurement": "inhibition", "setting": "[12]", "result": 12, "unit": "%"},
      {"measurement": "inhibition", "setting": "[13]", "result": -10, "unit": "%"},
      {"measurement": "inhibition", "setting": "[14]", "result": 80.4, "unit": "%"},
      {"measurement": "inhibition", "setting": "[15]", "result": -4, "unit": "%"},
      {"measurement": "inhibition", "setting": "[16]", "result": -2, "unit": "%"},
      {"measurement": "inhibition", "setting": "[17]", "result": 3, "unit": "%"},
      {"measurement": "inhibition", "setting": "[18]", "result": 4, "unit": "%"},
      {"measurement": "inhibition", "setting": "[19]", "result": 43, "unit": "%"},
      {"measurement": "inhibition", "setting": "[20]", "result": 10, "unit": "%"}
    ]}
  ]
}
